Source: publication PMC9837764 (Nature Communications, 2023)
Where “and” joins values, the source holds several entries; their conditions need not be identical. Equal values may be shown once. Read-outs that look alike come from different tables or passages of the source.

Assays:
SARS-CoV-2 [1] = experiment: Combination of RdRp inhibitors with SARS-CoV-2 nsp14 inhibitors in infected Calu-3 cells, synergy; assay type: cell-based; parameters: EC99 mean: unit not given here; conditions: for EC99 mean: Calu-3 cells, alone or with nsp14 inhibitor at the concentration of the label, unit not given; for EC50: Severe acute respiratory syndrome coronavirus 2, Calu-3, read-out: EC50 mean; for EC90: Severe acute respiratory syndrome coronavirus 2, Calu-3, read-out: EC90 mean
SARS-CoV-2 [2] = experiment: Genomic and subgenomic viral RNA in infected Calu-3 cells (RT-PCR); assay type: cell-based
IL-6 = IL-6 in supernatant of SARS-CoV-2-infected human primary monocytes; assay type: cell-based
Description: (§1) Human primary monocytes were obtained after 3 h of plastic adherence of peripheral blood mononuclear cells (PBMCs). The use of primary human cell was approved by Institutional Review Board from the Oswaldo Cruz Foundation under protocol 49971421.8.0000.5248 with signed informed consent in accordance with the Hemotherapy Service of Hospital Clementino Fraga from the Federal University of Rio de Janeiro. All volunteers were de-identified. PBMCs were isolated from healthy donors by density gradient centrifugation (Ficoll-Paque, GE Healthcare). PBMCs (2.0 × 10^6 cells) were plated onto 48-well plates (NalgeNunc) in RPMI-1640 without serum for 2–4 h. Nonadherent cells were removed, and the remaining monocytes were maintained in DMEM with 5% human serum (HS; Millipore) and penicillin/streptomycin. The purity of human monocytes was above 95%, as determined by flow cytometric analysis (FACScan; Becton Dickinson) using anti-CD3 (BD Biosciences, cat # 555342, 1:40), anti-CD16 (Southern Biotech, cat # 561313, 1:20) and APC mouse IgG2a isotype (BD Biosciences, cat # 550882, 1/40) and PE mouse IgG1 isotype (BD Biosciences, 555749, 1/20).

SARS-CoV-2 [3] = experiment: Yield-reduction assay, SARS-CoV-2 in Calu-3 cells (titers as PFU/mL in Vero cells)
TNF-α = TNF-α in supernatant of SARS-CoV-2-infected human primary monocytes; assay type: cell-based
Description: as §1

SARS-CoV-2 [4] = experiment: Cell-associated virus RNA in SARS-CoV-2-infected human primary monocytes; assay type: cell-based
Description: as §1
Total viral RNA from a culture supernatant and/or monolayers was extracted using QIAamp Viral RNA (Qiagen®) according to the manufacturer’s instructions. Quantitative RT‒PCR was performed using GoTaq® Probe qPCR and RT-qPCR Systems (Promega) in a StepOne™ Real-Time PCR System (Thermo Fisher Scientific) ABI PRISM 7500 Sequence Detection System (Applied Biosystems). Amplifications were carried out in 25 µL reaction mixtures containing 2× reaction mix buffer, […] of each primer, 10 µM of probe, and 5 µL of RNA template. Primers, probes, and cycling conditions recommended by the Centers for Disease Control and Prevention (CDC) protocol were used to detect SARS-CoV-2[52]. The standard curve method was employed for virus quantification. For reference to the cell amounts used, the housekeeping gene RNAse P (F-5′-[…] -3′, R-5′[…] -3′, P-5′-FAM-[…] -BHQ-1-3′) was amplified. The Ct values for this target were compared to those obtained for different cell amounts, 10^7 to 10^2, for calibration.

[5] = system: Salmonella typhimurium TA 102; experiment: Ames test, strain TA 102; conditions: Positive Control 5 µg/plate
[6] = molecular target: SARS-CoV-2 RNA polymerase, nsp12, 7, and 8 (Severe acute respiratory syndrome coronavirus 2, UniProt P0DTD1); experiment: SARS-CoV-2 RNA polymerase inhibition assay (pyrophosphate luminescence); assay type: biochemical
[7] = infected Calu-3, compound alone at 10 uM
[8] = Calu-3, 10 µM, 48 h, listed as RDV
[9] = infected monocytes, drugs at 10 µM, 24 h, listed as RDV

## CC(C)OC(=O)[C@H](C)N[P@](=O)(OC[C@H]1O[C@@H](n2ccc(=O)[nH]c2=O)[C@](C)(F)[C@@H]1O)Oc1ccccc1 [Sofosbuvir, sofosbuvir]
SARS-CoV-2 [1]; [7]
  Virus productive titers (Fig3A source data, replicates): 64000 and 24000 and 240000
  Virus productive titers (Fig3B source data, replicates): 64000 and 24000 and 240000

## CC(C)OC(=O)[C@H](C)NP(=O)(OC[C@H]1O[C@@H](n2cnc3c(NCc4ccco4)ncnc32)[C@H](O)[C@@H]1O)Oc1ccccc1 (stereo partly drawn) [MB-711, Phenyl (Isopropoxy-L-alaninyl) Kinetin Riboside Phosphoramidate]
SARS-CoV-2 [2]
  Genomic viral RNA (Fig2B source data, replicates): 0.3 and 0.45 and 0.2
  Subgenomic viral RNA (Fig2B source data, replicates): 0.6 and 0.8 and 0.5
SARS-CoV-2 [1]
  Virus productive titers (Fig3A source data, replicates): 46000 and 30000 and 28000
  Virus productive titers (Fig3B source data, replicates): 46000 and 30000 and 45000
IL-6
  IL-6 levels in the culture supernatant (Fig1E source data, per donor): 2.2 and 1.8 and 0.121 and 4.3 and 3.4 and 5.0 and 1.5 and 2.9
SARS-CoV-2 [3]
  Inhibition of SARS-CoV-2 infectious titers (Fig1A source data, replicates): 20 and 7 and 28 and 24 and 64 and 23 and 25 and 50 and 33 and 60 and 57 and 42 and 79 (2×) and 81
  Inhibition of SARS-CoV-2 infectious titers (Fig1B source data, replicates): 16 (2×) and 20 and 43 and 73 and 50 and 55 and 71 and 77 (2×) and 80 and 75 and 99 and 97 and 95
TNF-α
  TNF-α levels in the culture supernatant (Fig1D source data, per donor): 1.6 and 1.8 and 0.638 and 2.6 and 5.0 and 4.1
SARS-CoV-2 [4]
  Cell-associated virus RNA levels in SARS-CoV-2-infected monocytes: reduced cell-associated virus RNA levels in a concentration-dependent manner
  Cell-associated virus RNA loads, inhibition (Fig1C source data, per donor): 2 (2×) and 0 and 32 and 30 and 35 and 40 and 45 and 50

## CCC(CC)COC(=O)[C@H](C)N[P@](=O)(OC[C@H]1O[C@@](C#N)(c2ccc3c(N)ncnn23)[C@H](O)[C@@H]1O)Oc1ccccc1 [Remdesivir, remdesivir, reference compound]
SARS-CoV-2 [2]; [8]
  Genomic viral RNA (Fig2B source data, replicates): 0.221 and 0.22 and 0.2
  Subgenomic viral RNA (Fig2B source data, replicates): 0.07 and 0.05 and 0.09
SARS-CoV-2 [1]
  EC99 mean: 1.1
  EC50: 90 nM
  EC90: 400 nM
IL-6; [9]
  IL-6 levels in the culture supernatant (Fig1E source data, per donor): 2.2 and 1.5 and 3.0 and 4.2 and 2.9 and 1.1
SARS-CoV-2 [3]; Severe acute respiratory syndrome coronavirus 2, Calu-3
  EC50: 150 ± 30 nM
SARS-CoV-2 [3]; Severe acute respiratory syndrome coronavirus 2, Calu-3, 24 h
  EC50: 10 ± 3 nM
SARS-CoV-2 [3]; additional treatment at 24 h, Drug 0.001, Calu-3, 48 h, listed as RDV
  Inhibition of SARS-CoV-2 infectious titers (Fig1B source data, replicates): 28 and 35 and 32
SARS-CoV-2 [3]; additional treatment at 24 h, Drug 0.01, listed as RDV
  Inhibition of SARS-CoV-2 infectious titers (Fig1B source data, replicates): 40 and 60 and 50
SARS-CoV-2 [3]; additional treatment at 24 h, Drug 0.1, listed as RDV
  Inhibition of SARS-CoV-2 infectious titers (Fig1B source data, replicates): 80 and 70 and 60
SARS-CoV-2 [3]; additional treatment at 24 h, Drug 1
  Inhibition of SARS-CoV-2 infectious titers (Fig1B source data, replicates): 100
SARS-CoV-2 [3]; additional treatment at 24 h, Drug 10
  Inhibition of SARS-CoV-2 infectious titers (Fig1B source data, replicates): 100
SARS-CoV-2 [3]; one treatment, Drug 0.001, Calu-3, MOI 0.1, 48 h, listed as RDV
  Inhibition of SARS-CoV-2 infectious titers (Fig1A source data, replicates): 12 and 16 and 10
SARS-CoV-2 [3]; one treatment, Drug 0.01, listed as RDV
  Inhibition of SARS-CoV-2 infectious titers (Fig1A source data, replicates): 30 and 50 and 55
SARS-CoV-2 [3]; one treatment, Drug 0.1, listed as RDV
  Inhibition of SARS-CoV-2 infectious titers (Fig1A source data, replicates): 45 and 50 and 72
SARS-CoV-2 [3]; one treatment, Drug 1
  Inhibition of SARS-CoV-2 infectious titers (Fig1A source data, replicates): 100
SARS-CoV-2 [3]; one treatment, Drug 10
  Inhibition of SARS-CoV-2 infectious titers (Fig1A source data, replicates): 100
TNF-α; [9]
  TNF-α levels in the culture supernatant (Fig1D source data, per donor): 1.6 and 1.4 and 0.437 and 0.351 and 5.3 and 4.9 and 4.3 and 6.2
SARS-CoV-2 [4]; Fig. 1c
  Cell-associated virus RNA levels in SARS-CoV-2-infected monocytes: reduced cell-associated virus RNA levels in a concentration-dependent manner

## Nc1ccc2cc3ccccc3cc2c1 [2-AA, 2-aminoanthracene, reference compound]
[5]
  Mutagenicity TA 102 +S9: +

## O=P(O)(O)OP(=O)(O)OP(=O)(O)OC[C@H]1O[C@@H](n2cnc3c(NCc4ccco4)ncnc32)[C@H](O)[C@@H]1O [801-TP, Kinetin ribose 5’-triphosphate]
[6]
  IC50: 100 ± 3 nM
  IC50 fold higher than that of GS-443902: 3 fold
[6]; Drug Concentration 0.001
  SARS-CoV-2 RNA polymerase inhibition (Fig2A source data, replicates): 4 and 6 and 8
[6]; Drug Concentration 0.01
  SARS-CoV-2 RNA polymerase inhibition (Fig2A source data, replicates): 4 and 5 (2×)
[6]; Drug Concentration 0.1
  SARS-CoV-2 RNA polymerase inhibition (Fig2A source data, replicates): 53 and 50 and 55
[6]; Drug Concentration 1
  SARS-CoV-2 RNA polymerase inhibition (Fig2A source data, replicates): 60 and 47 and 52
[6]; Drug Concentration 10
  SARS-CoV-2 RNA polymerase inhibition (Fig2A source data, replicates): 70 and 75 and 51

## C[C@H](Cn1cnc2c(N)ncnc21)OCP(=O)(O)O [Tenofovir, tenofovir]
SARS-CoV-2 [1]
  EC50: 4300 nM
SARS-CoV-2 [1]; [7]
  Virus productive titers (Fig3A source data, replicates): 80000 and 88000 and 5000
  Virus productive titers (Fig3B source data, replicates): 80000 and 88000 and 5000

## NC(=O)c1nc(F)c[nH]c1=O [Favipiravir, favipiravir]
SARS-CoV-2 [1]
  EC50: 7800 nM

## COC(=O)N[C@H](C(=O)N1CCC[C@H]1c1nc(-c2ccc(-c3ccc(-c4c[nH]c([C@@H]5CCCN5C(=O)[C@@H](NC(=O)OC)C(C)C)n4)cc3)cc2)c[nH]1)C(C)C [Daclatasvir, daclatasvir]
SARS-CoV-2 [1]
  EC50: 700 nM
  EC90: 3800 nM

## COC(=O)N[C@H](C(=O)N1CCC[C@H]1c1nc2cc([C@H]3CC[C@H](c4cc5nc([C@@H]6CCCN6C(=O)[C@@H](NC(=O)OC)[C@@H](C)OC)[nH]c5cc4F)N3c3cc(F)c(N4CCC(c5ccc(F)cc5)CC4)c(F)c3)c(F)cc2[nH]1)[C@@H](C)OC [Pibrentasvir, pibrentasvir]
SARS-CoV-2 [1]
  EC99 mean: 19
  EC50: 700 nM
  EC90: 4200 nM

## COC(=O)N[C@H](C(=O)N1CCC[C@H]1C(=O)Nc1ccc([C@@H]2CC[C@@H](c3ccc(NC(=O)[C@@H]4CCCN4C(=O)[C@@H](NC(=O)OC)C(C)C)cc3)N2c2ccc(C(C)(C)C)cc2)cc1)C(C)C [Ombitasvir, ombitasvir]
SARS-CoV-2 [1]
  EC99 mean: 18
  EC50: 400 nM
  EC90: 3300 nM

## c1coc(CNc2ncnc3c2ncn3C2CCCCO2)c1 (stereo not shown) [MB-906, 6-furfurylamino-9-(tetrahydropyran-2-yl)−9H-purine]
SARS-CoV-2 [3]; huh-7 and calu-3 cells (Supplementary Fig. 2)
  Antiviral activity, SARS-CoV-2 replication: impaired

## N#C[C@@]1(c2ccc3c(N)ncnn23)O[C@H](COP(=O)(O)OP(=O)(O)OP(=O)(O)O)[C@@H](O)[C@H]1O [GS-443902]
[6]; Drug Concentration 0.001
  SARS-CoV-2 RNA polymerase inhibition (Fig2A source data, replicates): 3 (2×) and 5
[6]; Drug Concentration 0.01
  SARS-CoV-2 RNA polymerase inhibition (Fig2A source data, replicates): 6 and 40 and 5
[6]; Drug Concentration 0.1
  SARS-CoV-2 RNA polymerase inhibition (Fig2A source data, replicates): 65 and 63 and 80
[6]; Drug Concentration 1
  SARS-CoV-2 RNA polymerase inhibition (Fig2A source data, replicates): 90 (2×) and 53
[6]; Drug Concentration 10
  SARS-CoV-2 RNA polymerase inhibition (Fig2A source data, replicates): 99 and 90 and 75

## Cc1nnc(C(=O)NC(C)(C)c2nc(C(=O)NCc3ccc(F)cc3)c(O)c(=O)n2C)o1 [RTG, raltegravir]
SARS-CoV-2 [1]
  EC50: 4800 nM
SARS-CoV-2 [1]; alone at 5 µM, Calu-3
  Effects on SARS-CoV-2 replication: marginal effects
SARS-CoV-2 [1]; infected Calu-3, RTG alone at 5uM
  Virus productive titers (Fig3A source data, replicates): 224000 and 448000
